± gives the expanded uncertainty stated by the source.
Assay: xn = mol fraction of the nth substance listed
Settings: Gas, Hot wire method

C [methane] + O=C=O
Settings	thermal conductivity [W/m/K]
300 K, 724 kPa, x1 = 0.2493	0.02096 ± 0.00039
300 K, 727 kPa, x1 = 0.4994	0.02533 ± 0.00046
300 K, 730 kPa, x1 = 0.7496	0.03005 ± 0.00053
300 K, 1240 kPa, x1 = 0.7496	0.03027 ± 0.00054
300 K, 1241 kPa, x1 = 0.4994	0.02556 ± 0.00046
300 K, 1288 kPa, x1 = 0.2493	0.02125 ± 0.00039
300 K, 1748 kPa, x1 = 0.4994	0.02584 ± 0.00047
300 K, 1770 kPa, x1 = 0.7496	0.03051 ± 0.00054
300 K, 1835 kPa, x1 = 0.2493	0.02161 ± 0.0004
300 K, 2212 kPa, x1 = 0.4994	0.02613 ± 0.00047
300 K, 2245 kPa, x1 = 0.7496	0.03082 ± 0.00055
300 K, 2335 kPa, x1 = 0.2493	0.02197 ± 0.00041
300 K, 2700 kPa, x1 = 0.4994	0.02637 ± 0.00048
300 K, 2740 kPa, x1 = 0.7496	0.03109 ± 0.00055
300 K, 2820 kPa, x1 = 0.2493	0.02245 ± 0.00041
300 K, 3118 kPa, x1 = 0.4994	0.02681 ± 0.00048
300 K, 3220 kPa, x1 = 0.7496	0.03153 ± 0.00056
300 K, 3275 kPa, x1 = 0.2493	0.02287 ± 0.00042
300 K, 3550 kPa, x1 = 0.4994	0.02726 ± 0.00049
300 K, 3680 kPa, x1 = 0.7496	0.03188 ± 0.00057
300 K, 3730 kPa, x1 = 0.2493	0.02338 ± 0.00043
300 K, 4160 kPa, x1 = 0.2493	0.02399 ± 0.00044
300 K, 4160 kPa, x1 = 0.7496	0.03236 ± 0.00057
300 K, 4550 kPa, x1 = 0.2493	0.02452 ± 0.00045
300 K, 4560 kPa, x1 = 0.7496	0.03271 ± 0.00058
300 K, 4660 kPa, x1 = 0.4994	0.02839 ± 0.00051
300 K, 4920 kPa, x1 = 0.2493	0.0252 ± 0.00046
300 K, 5000 kPa, x1 = 0.7496	0.03324 ± 0.00059
300 K, 5670 kPa, x1 = 0.4994	0.02959 ± 0.00053
300 K, 6570 kPa, x1 = 0.4994	0.03101 ± 0.00056
325 K, 793 kPa, x1 = 0.2493	0.0234 ± 0.00043
325 K, 797 kPa, x1 = 0.7496	0.03345 ± 0.00059
325 K, 800 kPa, x1 = 0.4994	0.02831 ± 0.0005
325 K, 1350 kPa, x1 = 0.4994	0.02846 ± 0.00051
325 K, 1358 kPa, x1 = 0.7496	0.03366 ± 0.00059
325 K, 1420 kPa, x1 = 0.2493	0.02367 ± 0.00043
325 K, 1896 kPa, x1 = 0.4994	0.02871 ± 0.00051
325 K, 1920 kPa, x1 = 0.7496	0.0339 ± 0.0006
325 K, 2020 kPa, x1 = 0.2493	0.02398 ± 0.00044
325 K, 2434 kPa, x1 = 0.4994	0.02901 ± 0.00052
325 K, 2465 kPa, x1 = 0.7496	0.0342 ± 0.0006
325 K, 2600 kPa, x1 = 0.2493	0.02439 ± 0.00044
325 K, 2970 kPa, x1 = 0.4994	0.02933 ± 0.00052
325 K, 3020 kPa, x1 = 0.7496	0.0345 ± 0.00061
325 K, 3160 kPa, x1 = 0.2493	0.02478 ± 0.00045
325 K, 3440 kPa, x1 = 0.4994	0.02963 ± 0.00053
325 K, 3520 kPa, x1 = 0.7496	0.03477 ± 0.00061
325 K, 3685 kPa, x1 = 0.2493	0.02519 ± 0.00046
325 K, 3920 kPa, x1 = 0.4994	0.02999 ± 0.00054
325 K, 4040 kPa, x1 = 0.7496	0.03529 ± 0.00062
325 K, 4210 kPa, x1 = 0.2493	0.02561 ± 0.00047
325 K, 4555 kPa, x1 = 0.7496	0.03559 ± 0.00063
325 K, 4690 kPa, x1 = 0.2493	0.02615 ± 0.00048
325 K, 5040 kPa, x1 = 0.7496	0.03603 ± 0.00064
325 K, 5170 kPa, x1 = 0.2493	0.02675 ± 0.00049
325 K, 5200 kPa, x1 = 0.4994	0.03111 ± 0.00056
325 K, 5560 kPa, x1 = 0.7496	0.03638 ± 0.00064
325 K, 5625 kPa, x1 = 0.2493	0.02733 ± 0.0005
325 K, 6380 kPa, x1 = 0.4994	0.03222 ± 0.00058
325 K, 7500 kPa, x1 = 0.4994	0.03379 ± 0.0006
350 K, 860 kPa, x1 = 0.2493	0.026 ± 0.00047
350 K, 862 kPa, x1 = 0.7496	0.03707 ± 0.00064
350 K, 865 kPa, x1 = 0.4994	0.03135 ± 0.00055
350 K, 1310 kPa, x1 = 0.2493	0.02615 ± 0.00047
350 K, 1464 kPa, x1 = 0.4994	0.03154 ± 0.00056
350 K, 1605 kPa, x1 = 0.7496	0.03738 ± 0.00065
350 K, 1750 kPa, x1 = 0.2493	0.02631 ± 0.00047
350 K, 2054 kPa, x1 = 0.4994	0.03177 ± 0.00056
350 K, 2180 kPa, x1 = 0.2493	0.02656 ± 0.00048
350 K, 2340 kPa, x1 = 0.7496	0.03766 ± 0.00066
350 K, 2610 kPa, x1 = 0.2493	0.02669 ± 0.00048
350 K, 2660 kPa, x1 = 0.4994	0.03206 ± 0.00057
350 K, 3020 kPa, x1 = 0.2493	0.02694 ± 0.00049
350 K, 3035 kPa, x1 = 0.7496	0.03796 ± 0.00066
350 K, 3190 kPa, x1 = 0.4994	0.03224 ± 0.00057
350 K, 3440 kPa, x1 = 0.2493	0.02718 ± 0.00049
350 K, 3740 kPa, x1 = 0.7496	0.03813 ± 0.00067
350 K, 3760 kPa, x1 = 0.4994	0.03258 ± 0.00058
350 K, 3840 kPa, x1 = 0.2493	0.02747 ± 0.0005
350 K, 4220 kPa, x1 = 0.2493	0.02766 ± 0.0005
350 K, 4324 kPa, x1 = 0.4994	0.03282 ± 0.00058
350 K, 4410 kPa, x1 = 0.7496	0.03855 ± 0.00068
350 K, 4600 kPa, x1 = 0.2493	0.02799 ± 0.0005
350 K, 5140 kPa, x1 = 0.7496	0.039 ± 0.00068
350 K, 5145 kPa, x1 = 0.4994	0.03347 ± 0.00059
350 K, 5860 kPa, x1 = 0.7496	0.03958 ± 0.00069
350 K, 5920 kPa, x1 = 0.4994	0.03401 ± 0.0006
350 K, 6410 kPa, x1 = 0.7496	0.03989 ± 0.0007
350 K, 6670 kPa, x1 = 0.4994	0.03477 ± 0.00062
350 K, 7080 kPa, x1 = 0.7496	0.04053 ± 0.00071

Reference: the NIST ThermoML archive (doi:10.1007/s10765-005-5566-6)
